Measured values from patent publication US20090149461A1, “METHOD OF TREATING CANCER” (ABBOTT LABORATORIES, priority 2007, published 2009).
Like-named read-outs stand apart in the source and are kept apart here.

What was measured:
[1] = oral bioavailability from prototype formulations in dog; assay type: in vivo; details: beagle, plasma, prototype solid dispersion and lipid-based formulations
From the text: (§1) The oral bioavailability of the compound is formulation dependent, with values of 30% to 50% obtained from prototype solid dispersion and lipid-based formulations in dog. […] Elimination of total radioactivity is rapid, with 90% of the dose recovered within 24-hours post-dose.

WSU-DLCL2 = test: flank model of diffuse large B-cell lymphoma, monotherapy; assay type: in vivo; details: 100 mg/kg/day p.o., q.d.×17 days
From the text: (§2) Both of these tumors are known to express high levels of Bcl-2 due to the t(14;18) translocation. The WSU-DLCL2 line was isolated from a patient whose disease progressed following chemotherapy, radiation therapy and bone marrow transplantation and is recognized as a model of therapy-resistant lymphoma.

DoHH-2 = test: as above; assay type: in vivo; details: DoHH-2 flank model; 100 mg/kg/day p.o., q.d.×17 days
From the text: as §2

Bcl-B = target: T1, Bcl-B (Homo sapiens, UniProt Q9HD36); test: binding affinity to anti-apoptotic Bcl-2 family proteins
T1 sequence (Q9HD36 1-204): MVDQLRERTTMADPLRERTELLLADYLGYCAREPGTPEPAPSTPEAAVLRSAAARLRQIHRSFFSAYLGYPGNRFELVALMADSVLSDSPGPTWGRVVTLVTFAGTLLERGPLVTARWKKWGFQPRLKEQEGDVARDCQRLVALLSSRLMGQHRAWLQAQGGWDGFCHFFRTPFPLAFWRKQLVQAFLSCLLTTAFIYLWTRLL

[2] = system: 22 cell lines consisting of multiple leukemia and lymphoma types (B-cell and T-cell malignancies); test: single agent activity in leukemia and lymphoma cell line panel; assay type: cell-based
Bcl-w = target: T2, Bcl-w (Homo sapiens, UniProt Q92843); test: binding affinity to anti-apoptotic Bcl-2 family proteins
T2 sequence (Q92843 1-193): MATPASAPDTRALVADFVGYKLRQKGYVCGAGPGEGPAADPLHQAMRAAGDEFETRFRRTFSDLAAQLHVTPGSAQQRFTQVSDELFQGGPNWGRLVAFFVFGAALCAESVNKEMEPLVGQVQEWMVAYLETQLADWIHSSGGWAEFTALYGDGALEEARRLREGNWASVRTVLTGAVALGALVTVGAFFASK

[3] = (14C) ABT-263 absorption and elimination in rat; assay type: in vivo
From the text: as §1

[4] = nonclinical pharmacokinetic profile in multiple animal models; assay type: in vivo; details: all species studied
[5] = system: Salmonella-Escherichia coli; test: Salmonella-Escherichia coli bacterial mutation assay (Ames); details: with or without metabolic activation
[6] = simulation of q.d. dosing in humans (exposure and platelets)
From the text: Based on preclinical evidence, potential treatment-related side effects may include drug interactions, lymphopenia, testicular effects, and thrombocytopenia. […] Under these conditions, platelet values are expected to be ′25 K/.iL at steady state.

[7] = in vivo rat micronucleus assay
platelets = test: decrease in circulating platelets in animals; assay type: in vivo, mouse, rat and dog
From the text: Thrombocytopenia was seen after administration of a single dose and is present at the time of Cmax.

[8] = rat, in vivo, 4 weeks
[9] = Phase 1/2a study pharmacokinetics; assay type: in vivo, human; details: for AUC: human
Experimental: There was no drug administered for the 72 hours following the first dose of the first cycle (Day-3) in order to assess the single-dose pharmacokinetics and toxicity.
Additional blood samples were collected at 0 hour (pre dose) on Day 14, Cycle 2 through Cycle 6. Sufficient blood were collected to provide approximately 1 mL plasma from each sample. A total of 27 blood samples (approximately 81 mL) were collected per subject for pharmacokinetic analysis during Cycle 1 and one additional blood sample per subject per cycle in the following cycles (up to Cycle 6).
The plasma samples were transferred using plastic pipettes into screw-capped polypropylene tubes labeled with the drug number name, type of sample (plasma), the protocol number, the subject number, the study cycle and day and the planned time of sampling relative to dosing. The plasma samples were frozen at −20° C. or colder within 1 hour after collection and will remain frozen until shipped.
Additional parameters may be calculated if useful in the interpretation of the data.
Subjects self-administered ABT-263 orally once daily (QD). Each dose were taken with approximately 240 mL of water. On days that pre-dose pharmacokinetic sampling is required (Cycle 1 Day-3, Cycle 1 Day 1, Cycle 1 Day 2, Cycle 1 Day 14, Cycle 2 Day 14, Cycle 3 Day 14, Cycle 4 Day 14, Cycle 5 Day 14 and Cycle 6 Day 14 in Phase 1 and on Cycle 1 Day 14 in Phase 2a) dosing will occur in the morning in the clinic to facilitate pharmacokinetic sampling.

[10] = system: cultured human peripheral blood lymphocytes; test: chromosomal aberration assay; assay type: cell-based; details: with or without metabolic activation
[11] = system: human tumor cell lines derived from small cell lung carcinomas and lymphoid malignancies; test: mechanism-based cytotoxicity in tumor cell lines
dog toxicity studies = assay type: in vivo
From the text: Target organs in the dog included lymphoid tissues (spleen, Peyer's patch, lymph nodes, and thymus (a 2-week study)), male reproductive tissues (testes and epididymides), and pancreas. The microscopic changes observed in these target organs included decreased size of follicles, cortex, and/or germinal centers in lymphoid tissue; decreased cellularity in mantle zone, germinal centers, and/or interfollicular areas of lymphoid tissue; spermatogonia, spermatocyte and/or spermatid (round and elongated) depletion; and pancreatic acinar cell single cell necrosis. With the exception of pancreatic acinar cell single cell necrosis, these microscopic changes were also noted following a 4-week dose-free recovery period.

With `CC1(C)CCC(c2ccc(Cl)cc2)=C(CN2CCN(c3ccc(C(=O)NS(=O)(=O)c4ccc(N[C@H](CCN5CCOCC5)CSc5ccccc5)c(S(=O)(=O)C(F)(F)F)c4)cc3)CC2)C1` [ABT-263, N-(4-(4-((2-(4-chlorophenyl)-5,5-dimethyl-1-cyclohex-1-en-1-yl)methyl)piperazin-1-yl)benzoyl)-4-(((1R)-3-(morpholin-4-yl)-1-((phenylsulfanyl)methyl)propyl)amino)-3-((trifluoromethyl)sulfonyl)benzenesulfonamide] the bioavailability [1] was 30 to 50%, the monotherapy activity (WSU-DLCL2) was “significant monotherapy activity” and the monotherapy activity (DoHH-2) was “significant monotherapy activity”. For the same compound, the Ki (Bcl-B) was at most 1 nM, the “cell lines with potent single agent activity” value [2] was 10 of 22 and the Ki (Bcl-w) was at most 1 nM. For the same compound, the absorption ([3]; (14C) ABT-263) was “slowly absorbed”, the “parent drug in systemic circulation” value ([3]; (14C) ABT-263) was “major component” and the “dose recovered (total radioactivity)” value ([3]; within 24-hours post-dose) was 90%. The half-life ([4]; CD-1 (mouse), Sprague-Dawley (rat), beagle (dog), mouse, rat, dog, cynomolgus monkey, plasma, read-out: terminal half-lives) was 4.6 to 8.4 h, the plasma clearance [4] was “very low” and the volumes of distribution [4] was “low”. For the same compound, the “mutagenicity in the Ames assay” value [5] was “not mutagenic”, the “expected biologically effective plasma concentration in humans” value [6] was 6.7 .iM and the “clastogenicity in rat micronucleus assay” value [7] was “not clastogenic”. The “time for platelet counts to return to normal values” (platelets; after a single dose) was “approximately one week”, the “duration for which platelet toxicity was tolerated” value (platelets; rat and dog) was “up to 28 days” and the tolerated dose [8] was 10 mg/kg/day. For the same compound, the “effect of food on oral absorption” value ([9]; fasting vs non-fasting) was “mild positive effect”, the “Inter-subject variability in exposure” value ([9]; human subjects) was about 40% and the “dose proportionality of exposure” value ([9]; human subjects) was “dose-proportional”. It also gave an AUC ([9]; in vivo, preclinical target, read-out: Preclinical target AUC) of 53000 to 88000 ng·h/mL, an AUC ([9]; plasma, oral, 225 mg (n=4), read-out: Mean AUC) of 47000 ng·h/mL and an AUC ([9]; plasma, oral, 315 mg (n=5), read-out: Mean AUC) of 100000 ng·h/mL. For the same compound, the AUC ([9]; plasma, oral, 440 mg (n=3), read-out: Mean AUC) was 109000 ng·h/mL, the half-life ([9]; plasma, oral, human subjects) was 14 to 20 h and the “chromosome aberrations in human lymphocytes in vitro” value [10] was “did not induce chromosome aberrations”. For the same compound, the EC50 [11] was at most 1000 nM, the bleeding time (dog toxicity studies; 2-week toxicity study, dogs with low platelet counts (<50 K/μL)) was “prolonged bleeding time” and the “time to full reversal of platelet effect after treatment ended” value (dog toxicity studies; 4-week toxicity study in dogs) was “less than 7 days”. The effect on lymphocytes (dog toxicity studies; dog) was “mild decrease”, the effect on platelets (dog toxicity studies; dog) was “marked decrease” and the NOAEL at 4 weeks (dog toxicity studies; dog, in vivo, 4 weeks of administration to dogs) was 1 mg/kg/day. For the same compound, the “no-observed-adverse-effect-level (NOAEL)” value (rat toxicity studies; 4-week rat toxicity study) was “not reached”, the “effect on liver enzymes (ALT, AST, alkaline phosphatase)” value (rat toxicity studies; rat) was “minimal to mild increases” and the effect on lymphocytes (rat toxicity studies; rat) was “minimal to moderate decreases”. The effect on platelets (rat toxicity studies; rat) was “mild to marked decreases”.
